Measured values reported in US20240423207A1, “PICOLINAMIDE COMPOUNDS WITH FUNGICIDAL ACTIVITY” (CORTEVA AGRISCIENCE LLC, priority 2014, published 2024).
Read-outs that look alike come from different tables or passages of the source.

Assays:
[1] = test system: Mycosphaerella graminicola; Anamorph: Septoria tritici; test: Leaf Blotch of Wheat (SEPTTR) fungicidal activity on wheat seedlings; assay type: in vivo; details: Zymoseptoria tritici; for pest or weed control at 121.5 g/ha: Low Volume, 121.5 g/H; for pest or weed control at 100 ppm: High Volume
Experimental: Example A: Evaluation of Fungicidal Activity: Leaf Blotch of Wheat (Mycosphaerella graminicola; Anamorph: Septoria tritici; Bayer code […]): Technical grades of materials were dissolved in acetone, which were then mixed with nine volumes of water (H2O) containing 110 ppm Triton X-100. The fungicide solutions were applied onto wheat seedlings using an automated booth sprayer to run-off. All sprayed plants were allowed to air dry prior to further handling. All fungicides were evaluated using the aforementioned method for their activity vs. all target diseases, unless stated otherwise. Wheat leaf blotch and brown rust activity were also evaluated using track spray applications, in which case the fungicides were formulated as EC formulations, containing 0.1% Trycol 5941 in the spray solutions. Wheat plants (variety Yuma) were grown from seed in a greenhouse in 50% mineral soil/50% soil-less Metro mix until the first leaf was fully emerged, with 7-10 seedlings per pot. These plants were inoculated with an aqueous spore suspension of Septoria tritici either prior to or after fungicide treatments. After inoculation the plants were kept in 100% relative humidity (one day in a dark dew chamber followed by two to three days in a lighted dew chamber at 20° C.) to permit spores to germinate and infect the leaf. The plants were then transferred to a greenhouse set at 20° C. for disease to develop. When disease symptoms were fully expressed on the 1st leaves of untreated plants, infection levels were assessed on a scale of 0 to 100 percent disease severity. Percent disease control was calculated using the ratio of disease severity on treated plants relative to untreated plants.

[2] = test system: Puccinia triticina; Synonym: Puccinia recondita f sp. tritici; test: Wheat Brown Rust (PUCCRT) fungicidal activity on wheat seedlings; assay type: in vivo; details: for pest or weed control at 121.5 g/ha: Low Volume, 121.5 g/H; for pest or weed control at 100 ppm: High Volume
Experimental: Technical grades of materials were dissolved in acetone, which were then mixed with nine volumes of water (H2O) containing 110 ppm Triton X-100. The fungicide solutions were applied onto wheat seedlings using an automated booth sprayer to run-off. All sprayed plants were allowed to air dry prior to further handling. All fungicides were evaluated using the aforementioned method for their activity vs. all target diseases, unless stated otherwise. Wheat leaf blotch and brown rust activity were also evaluated using track spray applications, in which case the fungicides were formulated as EC formulations, containing 0.1% Trycol 5941 in the spray solutions. Wheat plants (variety Yuma) were grown from seed in a greenhouse in 50% mineral soil/50% soil-less Metro mix until the first leaf was fully emerged, with 7-10 seedlings per pot. These plants were inoculated with an aqueous spore suspension of Septoria tritici either prior to or after fungicide treatments. After inoculation the plants were kept in 100% relative humidity (one day in a dark dew chamber followed by two to three days in a lighted dew chamber at 20° C.) to permit spores to germinate and infect the leaf. The plants were then transferred to a greenhouse set at 20° C. for disease to develop. When disease symptoms were fully expressed on the 1st leaves of untreated plants, infection levels were assessed on a scale of 0 to 100 percent disease severity. Percent disease control was calculated using the ratio of disease severity on treated plants relative to untreated plants. Example B: Evaluation of Fungicidal Activity: Wheat Brown Rust (Puccinia triticina; Synonym: Puccinia recondita f sp. tritici; Bayer code PUCCRT): Wheat plants (variety Yuma) were grown from seed in a greenhouse in 50% mineral soil/50% soil-less Metro mix until the first leaf was fully emerged, with 7-10 seedlings per pot. These plants were inoculated with an aqueous spore suspension of Puccinia triticina either prior to or after fungicide treatments. After inoculation the plants were kept in a dark dew room at 22° C. with 100% relative humidity overnight to permit spores to germinate and infect the leaf. The plants were then transferred to a greenhouse set at 24° C. for disease to develop. Fungicide formulation, application and disease assessment followed the procedures as described in the Example A.

[3] = 24 h, 1 Day Protectant, read-out: SEPTTR 1DP disease control
[4] = 72 h, 3 Day Curative, read-out: SEPTTR 3DC disease control
[5] = 24 h, 1 Day Protectant, read-out: PUCCRT 1DP disease control
[6] = 72 h, 3 Day Curative, read-out: PUCCRT 3DC disease control

Compound	pest or weed control at 121.5 g/ha [1, 3]	pest or weed control at 121.5 g/ha [1, 4]	pest or weed control at 121.5 g/ha [2, 5]	pest or weed control at 121.5 g/ha [2, 6]	pest or weed control at 100 ppm [1, 3]	pest or weed control at 100 ppm [1, 4]	pest or weed control at 100 ppm [2, 5]	pest or weed control at 100 ppm [2, 6]
COc1ccnc(C(=O)N[C@@H](C)C(=O)O[C@@H](C)C(F)(c2ccccc2)c2ccccc2)c1OCOC(C)=O [Cmpd 153]	> 80%	> 80%	< 80%	< 80%				
COc1ccnc(C(=O)N[C@@H](C)C(=O)O[C@@H](C)C(OC)(c2ccccc2)c2ccccc2)c1OCOC(C)=O [Cmpd 149]	> 80%	> 80%	< 80%	< 80%				
COc1ccnc(C(=O)N[C@@H](C)C(=O)O[C@@H](C)C(c2ccc(C)c(Cl)c2)c2ccc(C)c(Cl)c2)c1OCOC(C)=O [Cmpd 195]	> 80%	< 80%	> 80%	< 80%				
COc1ccnc(C(=O)N[C@@H](C)C(=O)O[C@@H](C)[C@@H](c2ccccc2)c2ccc(F)cc2)c1O [Cmpd 125]					> 80%	> 80%	> 80%	> 80%
COc1ccnc(C(=O)N[C@@H](C)C(=O)O[C@@H](C)C(O)(c2ccccc2F)c2ccccc2F)c1O [Cmpd 122]					< 80%	< 80%		
COc1ccnc(C(=O)N[C@@H](C)C(=O)O[C@@H](C)C(c2ccc(C)c(Cl)c2)c2ccc(C)c(Cl)c2)c1O [Cmpd 121]					> 80%	> 80%	> 80%	< 80%
COc1cccc(C(c2cccc(OC)c2)[C@H](C)OC(=O)[C@H](C)NC(=O)c2nccc(OC)c2OCOC(C)=O)c1 [Cmpd 192]	> 80%	> 80%	> 80%	> 80%				
COc1ccnc(C(=O)N[C@@H](C)C(=O)O[C@@H](C)C(c2ccc(Cl)c(C)c2)c2ccc(Cl)c(C)c2)c1O [Cmpd 129]					> 80%	> 80%	> 80%	< 80%
COc1ccnc(C(=O)N[C@@H](C)C(=O)O[C@@H](C)[C@@H](c2ccccc2)c2ccc(C(F)(F)F)cc2)c1OC(C)=O [Cmpd 173]	> 80%	> 80%	> 80%	< 80%				
CCOC(c1ccccc1)(c1ccccc1)[C@H](C)OC(=O)[C@H](C)NC(=O)c1nccc(OC)c1OCOC(C)=O [Cmpd 147]	< 80%	> 80%	< 80%	< 80%				
COc1ccnc(C(=O)N[C@@H](C)C(=O)O[C@@H](C)C(c2ccc(Cl)cc2)c2ccc(Cl)cc2)c1O [Cmpd 107]					> 80%	> 80%	> 80%	< 80%
COc1ccnc(C(=O)N[C@@H](C)C(=O)O[C@@H](C)C(c2ccc(C)c(F)c2)c2ccc(C)c(F)c2)c1O [Cmpd 120]					> 80%	> 80%	> 80%	< 80%
COc1ccnc(C(=O)N[C@@H](C)C(=O)O[C@@H](C)[C@@H](c2ccccc2)c2ccc(C(F)(F)F)cc2)c1O [Cmpd 106]					> 80%	> 80%	> 80%	
COc1ccnc(C(=O)N[C@@H](C)C(=O)O[C@@H](C)[C@@H](c2ccccc2)c2ccc(F)cc2)c1OC(C)=O [Cmpd 204]	> 80%	> 80%	> 80%	> 80%				
COc1ccnc(C(=O)N[C@@H](C)C(=O)O[C@@H](C)C(c2cccs2)c2cccs2)c1OC(C)=O [Cmpd 143]		< 80%	< 80%					
COc1ccc(C(c2ccc(OC)cc2)[C@H](C)OC(=O)[C@H](C)NC(=O)c2nccc(OC)c2OCOC(C)=O)cc1 [Cmpd 158]	> 80%	> 80%	> 80%	> 80%				
COc1ccnc(C(=O)N[C@@H](C)C(=O)O[C@@H](C)C(c2ccc(F)cc2)c2ccc(F)cc2)c1OC(=O)C1CC1 [Cmpd 210]	> 80%	> 80%	> 80%	< 80%				
COc1ccnc(C(=O)NCC(=O)O[C@@H](C)C(c2ccc(F)cc2)c2ccc(F)cc2)c1OC(C)=O [Cmpd 187]	< 80%	< 80%	> 80%	< 80%				
COc1ccnc(C(=O)N[C@@H](C)C(=O)OC(C)C2c3ccccc3-c3ccccc32)c1O (stereo partly shown) [Cmpd 101]					< 80%			
COc1ccnc(C(=O)N[C@@H](C)C(=O)O[C@@H](C)C(O)(c2ccc(Cl)cc2F)c2ccc(Cl)cc2F)c1O [Cmpd 119]					> 80%	< 80%		
COc1ccnc(C(=O)N[C@@H](C)C(=O)O[C@@H](C)C(c2cccc(F)c2)c2cccc(F)c2)c1OCOC(C)=O [Cmpd 159]	> 80%	> 80%	> 80%	> 80%				
COc1ccnc(C(=O)N[C@@H](C)C(=O)O[C@@H](C)C(c2ccc(Cl)c(C)c2)c2ccc(Cl)c(C)c2)c1OC(C)=O [Cmpd 206]	> 80%	> 80%	> 80%	< 80%				
COc1ccnc(C(=O)N[C@@H](C)C(=O)OC(C)C2c3ccccc3Oc3ccccc32)c1OCOC(C)=O (stereo partly shown) [Cmpd 164]	< 80%							
COc1ccnc(C(=O)N[C@@H](C)C(=O)O[C@@H](C)C(O)(c2ccc(Cl)c(F)c2)c2ccc(Cl)c(F)c2)c1OCOC(C)=O [Cmpd 202]	> 80%	> 80%						
C[C@H](NC(=O)c1ccccc1O)C(=O)O[C@@H](C)C(c1ccc(F)cc1)c1ccc(F)cc1 [Cmpd 112]					< 80%	< 80%		
CC(=O)OCOc1ccccc1C(=O)N[C@@H](C)C(=O)O[C@@H](C)C(c1ccc(F)cc1)c1ccc(F)cc1 [Cmpd 180]	< 80%							
COc1ccnc(C(=O)N[C@@H](C)C(=O)O[C@@H](C)C(O)(c2ccccc2F)c2ccccc2F)c1OCOC(C)=O [Cmpd 196]	> 80%	< 80%						
COc1ccnc(C(=O)N[C@@H](C)C(=O)OC(C)C2c3ccccc3Oc3ccccc32)c1OC(C)=O (stereo partly shown) [Cmpd 162]		< 80%						
COc1ccnc(C(=O)N[C@@H](C)C(=O)O[C@@H](C)C(c2ccc(-c3ccccc3)cc2)c2ccc(-c3ccccc3)cc2)c1OCOC(C)=O [Cmpd 181]	< 80%	< 80%						
COc1ccnc(C(=O)N[C@@H](C)C(=O)OC(C)C2c3ccccc3-c3ccccc32)c1OC(C)=O (stereo partly shown) [Cmpd 161]	< 80%	> 80%						
